Reference: patent EP4467141A1, “PYRAZOLO-QUINOLINES AS SELECTIVE INHIBITORS OF GENOTOXIC STRESS-INDUCED IKK/NF- KB PATHWAYS FOR CANCER THERAPY” (Max-Delbrück-Centrum für Molekulare Medizin in der …, priority 2023, dated 2024)

Assays:
Assay in all cases: Kinase panel study
Format in all cases: biochemical
Details in all cases: read-out: Percentage of inhibition; for inhibition at 1 µM: 1000nM; for inhibition at 10 µM: 10000nM
[1] = molecular target: T1, EPHA8 (Homo sapiens, UniProt P29322)
T1 construct: purchased Thermo Fisher Scientific
T1 sequence (P29322 28-1005): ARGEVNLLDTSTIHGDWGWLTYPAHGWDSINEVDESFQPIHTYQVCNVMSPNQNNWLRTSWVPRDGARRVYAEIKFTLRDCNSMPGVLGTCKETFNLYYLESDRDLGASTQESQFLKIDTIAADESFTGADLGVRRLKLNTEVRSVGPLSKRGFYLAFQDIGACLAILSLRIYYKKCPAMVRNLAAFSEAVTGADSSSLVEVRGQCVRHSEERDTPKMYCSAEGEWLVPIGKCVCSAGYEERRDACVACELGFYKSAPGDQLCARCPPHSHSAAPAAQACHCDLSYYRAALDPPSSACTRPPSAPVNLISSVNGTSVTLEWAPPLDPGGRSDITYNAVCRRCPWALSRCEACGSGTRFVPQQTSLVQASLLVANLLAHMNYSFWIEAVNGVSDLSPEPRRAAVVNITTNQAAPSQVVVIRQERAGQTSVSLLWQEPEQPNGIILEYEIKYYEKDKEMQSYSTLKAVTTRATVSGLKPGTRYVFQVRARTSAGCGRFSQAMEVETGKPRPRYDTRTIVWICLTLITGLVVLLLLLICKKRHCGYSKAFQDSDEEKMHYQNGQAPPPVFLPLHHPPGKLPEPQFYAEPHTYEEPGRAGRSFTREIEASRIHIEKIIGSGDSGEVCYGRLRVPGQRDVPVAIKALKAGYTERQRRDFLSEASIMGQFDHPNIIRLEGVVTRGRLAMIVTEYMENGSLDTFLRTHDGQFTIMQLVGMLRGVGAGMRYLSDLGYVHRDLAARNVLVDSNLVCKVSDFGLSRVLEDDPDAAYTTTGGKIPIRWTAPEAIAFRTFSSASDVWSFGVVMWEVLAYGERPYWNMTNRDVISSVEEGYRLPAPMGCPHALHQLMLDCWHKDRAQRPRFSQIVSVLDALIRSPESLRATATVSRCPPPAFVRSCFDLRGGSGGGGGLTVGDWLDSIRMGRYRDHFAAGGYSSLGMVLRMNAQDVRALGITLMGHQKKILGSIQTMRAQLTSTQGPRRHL
In short: (§1)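 Compounds were tested in vitro against the kinase panel by a service lab. Assays followed standard ZLyte or Adapta protocols. Activity was recorded as % inhibition at 10 µM or 1 µM, with IC50 values where determined.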

[2] = molecular target: T2, LCK (Homo sapiens, UniProt P06239)
T2 construct: purchased Thermo Fisher Scientific
In short: as §1

[3] = molecular target: T3, FGR (Homo sapiens, UniProt P09769)
T3 construct: purchased Thermo Fisher Scientific
In short: as §1

[4] = molecular target: T4, CDC42 BPG (MRCKG) (Homo sapiens, UniProt Q6DT37)
T4 construct: purchased Thermo Fisher Scientific
In short: as §1

[5] = molecular target: T5, STK25 (YSK1) (Homo sapiens, UniProt O00506)
T5 construct: purchased Thermo Fisher Scientific
In short: as §1

[6] = molecular target: T6, CDK6/cyclin D1 (Homo sapiens, UniProt Q00534)
T6 construct: purchased Thermo Fisher Scientific
In short: as §1

[7] = molecular target: T7, ABL1 G250E (Homo sapiens, UniProt P00519, G250E)
T7 construct: purchased Thermo Fisher Scientific
In short: as §1

[8] = molecular target: T8, PRKCG (PKC gamma) (Homo sapiens, UniProt P05129)
T8 construct: purchased Thermo Fisher Scientific
In short: as §1

[9] = molecular target: T9, ERBB2 (HER2) (Homo sapiens, UniProt P04626)
T9 construct: purchased Thermo Fisher Scientific
In short: as §1

[10] = molecular target: T10, PRKCA (PKC alpha) (Homo sapiens, UniProt P17252)
T10 construct: purchased Thermo Fisher Scientific
In short: as §1

T2 sequence (P06239 whole entry): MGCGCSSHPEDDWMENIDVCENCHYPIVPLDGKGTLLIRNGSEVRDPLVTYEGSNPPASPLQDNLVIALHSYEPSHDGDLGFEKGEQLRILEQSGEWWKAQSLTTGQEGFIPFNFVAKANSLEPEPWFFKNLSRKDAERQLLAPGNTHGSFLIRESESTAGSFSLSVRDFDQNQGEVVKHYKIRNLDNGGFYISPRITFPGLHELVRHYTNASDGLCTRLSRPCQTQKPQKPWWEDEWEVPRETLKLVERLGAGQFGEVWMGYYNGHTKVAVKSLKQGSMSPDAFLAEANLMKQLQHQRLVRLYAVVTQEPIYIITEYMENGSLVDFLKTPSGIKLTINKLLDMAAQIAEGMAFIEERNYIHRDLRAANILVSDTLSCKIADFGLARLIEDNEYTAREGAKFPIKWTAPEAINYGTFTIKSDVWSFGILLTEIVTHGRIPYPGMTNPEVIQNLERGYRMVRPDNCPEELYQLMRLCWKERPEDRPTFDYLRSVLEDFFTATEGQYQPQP
T9 sequence (P04626 23-1255): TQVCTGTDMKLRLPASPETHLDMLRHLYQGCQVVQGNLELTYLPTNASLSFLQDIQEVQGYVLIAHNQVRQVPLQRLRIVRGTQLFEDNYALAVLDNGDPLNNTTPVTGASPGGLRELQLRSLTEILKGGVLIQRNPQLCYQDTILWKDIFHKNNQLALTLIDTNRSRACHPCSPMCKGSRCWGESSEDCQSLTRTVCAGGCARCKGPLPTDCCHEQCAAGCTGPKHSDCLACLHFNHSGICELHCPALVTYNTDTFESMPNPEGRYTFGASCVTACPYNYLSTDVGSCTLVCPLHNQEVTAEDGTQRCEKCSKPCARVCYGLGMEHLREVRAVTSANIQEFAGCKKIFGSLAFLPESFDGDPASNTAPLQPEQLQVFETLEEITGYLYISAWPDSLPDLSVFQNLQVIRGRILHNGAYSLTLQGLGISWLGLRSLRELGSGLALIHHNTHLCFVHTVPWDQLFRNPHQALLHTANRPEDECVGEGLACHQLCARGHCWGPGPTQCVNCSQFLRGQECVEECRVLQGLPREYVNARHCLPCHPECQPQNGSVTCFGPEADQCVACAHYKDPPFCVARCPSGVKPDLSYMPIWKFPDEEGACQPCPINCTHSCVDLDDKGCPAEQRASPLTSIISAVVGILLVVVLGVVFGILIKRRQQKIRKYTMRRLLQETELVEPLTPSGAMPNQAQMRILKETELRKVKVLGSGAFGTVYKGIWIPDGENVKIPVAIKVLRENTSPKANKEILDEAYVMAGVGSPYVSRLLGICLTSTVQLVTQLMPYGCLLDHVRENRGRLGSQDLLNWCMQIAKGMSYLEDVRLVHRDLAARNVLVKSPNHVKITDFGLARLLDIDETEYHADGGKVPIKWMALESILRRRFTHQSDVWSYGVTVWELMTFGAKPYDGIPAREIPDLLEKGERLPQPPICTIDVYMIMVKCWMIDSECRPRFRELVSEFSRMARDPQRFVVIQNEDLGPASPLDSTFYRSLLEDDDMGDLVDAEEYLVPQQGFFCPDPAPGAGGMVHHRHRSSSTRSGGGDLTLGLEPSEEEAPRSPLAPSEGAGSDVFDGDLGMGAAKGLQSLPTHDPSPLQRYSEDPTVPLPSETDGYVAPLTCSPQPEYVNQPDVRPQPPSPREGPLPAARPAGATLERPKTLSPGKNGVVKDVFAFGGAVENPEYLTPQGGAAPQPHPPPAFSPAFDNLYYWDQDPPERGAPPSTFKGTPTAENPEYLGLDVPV
T6 sequence (Q00534 whole entry): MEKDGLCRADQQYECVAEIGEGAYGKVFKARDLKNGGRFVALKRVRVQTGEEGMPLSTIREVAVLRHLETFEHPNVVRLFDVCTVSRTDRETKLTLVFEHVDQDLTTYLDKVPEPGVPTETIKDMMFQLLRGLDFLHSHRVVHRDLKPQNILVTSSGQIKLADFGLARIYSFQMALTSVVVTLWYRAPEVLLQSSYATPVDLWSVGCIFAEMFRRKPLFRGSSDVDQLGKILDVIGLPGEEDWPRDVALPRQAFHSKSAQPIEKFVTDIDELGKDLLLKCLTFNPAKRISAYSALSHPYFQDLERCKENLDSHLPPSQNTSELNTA
T6 sequence (P24385 whole entry partner): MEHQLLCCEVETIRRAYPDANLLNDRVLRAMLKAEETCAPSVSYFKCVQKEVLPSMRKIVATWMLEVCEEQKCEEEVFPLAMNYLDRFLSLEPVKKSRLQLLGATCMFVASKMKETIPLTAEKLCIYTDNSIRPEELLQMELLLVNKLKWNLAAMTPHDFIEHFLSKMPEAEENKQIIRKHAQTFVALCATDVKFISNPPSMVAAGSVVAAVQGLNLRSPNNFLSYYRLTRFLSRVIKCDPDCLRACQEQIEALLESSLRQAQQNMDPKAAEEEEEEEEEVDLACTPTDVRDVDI
T5 sequence (O00506 whole entry): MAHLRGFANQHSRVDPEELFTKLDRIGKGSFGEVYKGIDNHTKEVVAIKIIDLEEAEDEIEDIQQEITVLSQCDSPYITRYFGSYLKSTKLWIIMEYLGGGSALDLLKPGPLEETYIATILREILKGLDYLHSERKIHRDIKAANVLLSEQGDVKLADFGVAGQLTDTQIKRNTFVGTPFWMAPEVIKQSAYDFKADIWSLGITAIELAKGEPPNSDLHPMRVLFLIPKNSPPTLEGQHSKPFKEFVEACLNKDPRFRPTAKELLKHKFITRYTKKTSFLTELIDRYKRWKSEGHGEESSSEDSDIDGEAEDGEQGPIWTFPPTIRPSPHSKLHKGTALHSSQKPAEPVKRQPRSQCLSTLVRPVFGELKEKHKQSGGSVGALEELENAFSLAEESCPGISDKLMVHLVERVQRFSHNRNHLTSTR
T3 sequence (P09769 whole entry): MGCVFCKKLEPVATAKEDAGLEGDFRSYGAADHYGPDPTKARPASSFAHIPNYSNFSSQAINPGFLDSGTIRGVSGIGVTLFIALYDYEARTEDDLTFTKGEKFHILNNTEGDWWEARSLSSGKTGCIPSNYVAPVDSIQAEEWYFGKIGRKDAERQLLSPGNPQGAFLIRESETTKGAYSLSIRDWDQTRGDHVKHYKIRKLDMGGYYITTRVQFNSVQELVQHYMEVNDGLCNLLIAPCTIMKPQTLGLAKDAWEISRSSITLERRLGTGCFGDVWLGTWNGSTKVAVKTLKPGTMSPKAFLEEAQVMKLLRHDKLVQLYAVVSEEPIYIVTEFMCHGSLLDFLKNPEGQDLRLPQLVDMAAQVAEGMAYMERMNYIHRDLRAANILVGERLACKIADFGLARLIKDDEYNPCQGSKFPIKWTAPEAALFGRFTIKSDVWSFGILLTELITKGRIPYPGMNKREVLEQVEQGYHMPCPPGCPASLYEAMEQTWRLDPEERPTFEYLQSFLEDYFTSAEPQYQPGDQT

SMILES | inhibition at 1 µM [1] [%] | inhibition at 10 µM [1] [%] | inhibition at 1 µM [2] [%] | inhibition at 10 µM [2] [%] | inhibition at 1 µM [3] [%] | inhibition at 10 µM [3] [%] | inhibition at 1 µM [4] [%] | inhibition at 10 µM [4] [%] | inhibition at 1 µM [5] [%] | inhibition at 10 µM [5] [%] | inhibition at 1 µM [6] [%] | inhibition at 10 µM [6] [%] | inhibition at 1 µM [7] [%] | inhibition at 10 µM [7] [%] | inhibition at 1 µM [8] [%] | inhibition at 10 µM [8] [%] | inhibition at 1 µM [9] [%] | inhibition at 10 µM [9] [%] | inhibition at 1 µM [10] [%] | inhibition at 10 µM [10] [%]
COc1ccc2c(c1OC)c(=O)n1c3ccc(O)cc3c3ccnc2c31 [MW01, 5-Hydroxy-10,11-dimethoxy-9H-benzo[c]indolo[3,2,1-ij][1,5]naphthyridin-9-one] | 4 | 21 | 12 | 37 | 10 | 26 | 1 | 5 | -9 | -3 | 1 | -8 | 9 | 32 | 13 | 16 | 2 | 4 | 11 | 18
COc1ccc2cc3c(N)nn(C(=O)c4cccc(N(C)C)c4)c3nc2c1 [MW05, (3-Amino-7-methoxypyrazolo[3,4-b]quinolin-1-yl)-[3-(dimethylamino)phenyl]methanone] | -1 | -9 | 8 | 5 | 5 | 15 | 0 | 0 | -3 | -11 | 2 | 0 | 12 | 0 | 11 | -3 | -5 | -19 | 4 | -1
